System: cells from the A4 clone (hemizygous D816V kit iPSC line)
Experiment: Enucleation rate by flow cytometry using DRAQ5 (PSC-RED protocol without SCF and Epo)
Type: cell-based, human
Settings: clone A4, 200 nM dasatinib introduced starting at day 35, read at day 41; without dasatinib about 18%
Description: Enucleation: The enucleation rate was measured using the DRAQ5 DNA nuclear stain (ThermoFisher) after exclusion of dead cells with Propidium Iodide. The cells were analyzed with an Aurora flow cytometer (Cytek) flow cytometer, and the flow cytometry data were analyzed with the Flowjo software.
To assess the effect of the D816V kit mutation, control 01 iPSCs were differentiated, and hemizygous clone A4 and homozygous and B34 were randomly selected using the PSC-RED protocol with or without SCF and Epo (FIG. 3A). Dasatinib, which can be used to inhibit the activity of the D816V SCF receptor, was also included in some experiments. Cells were counted once a week, and differentiation was evaluated by flow cytometry, methyl-cellulose assays, and microscopy after Romanowsky staining.
The rate of enucleation was determined by flow cytometry using DRAQ5, a cell permeant DNA dye. Since no cytokines are necessary after day 17 in the PSC-RED protocol in the absence of SCF and Epo, the only trigger left to induce terminal differentiation is the removal of dexamethasone and introduction of RU-4816, a glucocorticoid antagonist (FIG. 2A).

With `Cc1nc(Nc2ncc(C(=O)Nc3c(C)cccc3Cl)s2)cc(N2CCN(CCO)CC2)n1` [dasatinib] the enucleation rate was “about 25%”.
